# According to patent US10908171B2, “Additive channels” (Emulate Inc., priority 2016, dated 2021):
# Entries after “also recorded” stand apart in the source; their conditions may differ. Counter-ions that a name gives are not always drawn. Positions of bridges follow the written chain, without caps; N, C: chain ends. Non-standard residues stand in square brackets, D forms with d. Residues, ends and D or L forms follow the SMILES beside them. hArg = N=C(N)NCCCC[C@H](N)C(=O)O; Mpa = O=C(O)CCS
# B1: sCD40L: soluble CD40 ligand (CD154); recombinant human sCD40 Ligand (protein, UniProt P29965 47-261, looked up)
# extracellular domain: HRRLDKIEDERNLHEDFVFMKTIQRCNTGERSLSLLNCEEIKSQFEGFVKDIMLNKEETKKENSFEMQKGDQNPQIAAHVISEASSKTTSVLQWAEKGYYTMSNNLVTLENGKQLTVKRQGLYYIYAQVTFCSNREASSQAPFIASLCLKSPGRFERILLRAANTHSSAKPCGQQSIHLGGVFELQPGASVFVNVTDPSQVSHGTGFTSFGLLKL
# modifications: extracellular domain
# Assays:
# [1] = tested on: platelets; experiment: Vessel-On-Chip platelet coverage / aggregation, fluorescence imaging of CD41-labelled platelets in perfused re-calcified blood; type: cell-based, human; conditions: for platelet aggregate formation / platelet coverage: hu5C8 240 μg/ml, sCD40L 10 ng/ml, alone or combined, 60 μl/minute, compared to untreated blood; for platelet coverage: endothelial pre-treatment TNF-α 50 ng/ml 6 hours, or blood with sCollagen 10 μg/ml, vs blood alone
# Experimental: (§1) Briefly, human blood was drawn in citrate buffer and used within 4 hours. Platelets were stained using fluorescently labeled non-blocking antibodies for the platelet surface marker CD41 and low dosages of fluorescent fibrinogen were added in order to visualize fibrin deposition. Blood was re-calcified in order to re-establish the full coagulation potential, then introduced in the biomimetic vessel-on-chip from the main inlet (embodiments of inlets shown in FIG. 18A-1, FIG. 18A-2 and FIG. 19C). The outlet of the chip was connected to a pulling syringe pump with a system of tubing and connectors made of medical grade silicon that excludes any metal components or potential causes of platelet activation (FIG. 5A).
# After 14 minutes of perfusion, the flow was interrupted and the chips were immediately imaged via fluorescence microscopy (FIG. 18C and FIG. 19D). In healthy conditions, endothelial cells will provide an antithrombotic surface where blood can flow smoothly, and indeed we detected minimal platelet adhesion or fibrin deposition in our vessel-on-chip after blood perfusion in control conditions, FIG. 18C, Blood.
# Experiments with Blood: Blood Samples And Endothelium: Citrated human blood (Research Blood Components, Cambridge, Mass.) was used within 4 hours of a blood draw in order to minimize pre-analytical effects on platelet function. Before every experiment, each one of the endothelialized channels (i.e. microchannels having an endothelial cell layer) was inspected via light microscopy. Samples showing any sign of discontinuity in the endothelium were discarded. […] USA) was at room temperature for 20 minutes.
# Platelets: Platelets were labeled with human CD41-PE antibody (10 μL/ml, Invitrogen) directly added to the blood and incubated at room temperature for 5 minutes.
# (§2) Adding Blood to a Vessel-On-Chip And Flow Conditions: A medical grade plastic reservoir was mounted on the chip, then 800 μl of the blood sample was pipetted into the reservoir. The chip was perfused with the blood by withdrawing it at a rate of 60 μl/minute using a syringe pump. The citrated blood was re-calcified 2 minutes after the beginning of each experiment by adding 100 μl/ml of a solution containing 100 mM calcium chloride and 75 mM magnesium chloride to the blood to permit calcium- and magnesium-dependent platelet function and coagulation.
# (§3) Fluorescence Image analysis: Chips perfused with blood samples were immediately imaged via fluorescence microscopy (Olympus IX83, 10× objective UPLFLN10X2, Orca-Flash 4.0 CMOS Camera). Each chamber was inspected along its entire length and 5 images (about 0.25 cm) were captured from the central area of the chamber. Image processing and quantification was performed with an automatic macro compiled in ImageJ and numerical values corresponding to platelet coverage or fibrin florescence were collected and statistically analyzed in Graphpad Prism V7.
# (§4) Platelet Coverage: A percentage of signal coverage (or Platelet coverage) was computed from the binary image as the ratio of bright pixels to the total number of pixels in the image. Image processing and quantification was performed with an automatic macro compiled in ImageJ in order to ensure unbiased signal measurements. Numerical values corresponding to platelet coverage or fibrin fluorescence (signal intensity) were collected and statistically analyzed in Graphpad Prism V7.
# [2] = tested on: fibrin; experiment: Vessel-On-Chip fibrin deposition, fluorescent fibrinogen imaging; type: cell-based, human; conditions: for fibrin deposition on the endothelium: hu5C8 240 μg/ml, sCD40L 10 ng/ml, alone or combined, compared to untreated blood; for fibrin signal intensity: endothelial pre-treatment TNF-α 50 ng/ml 6 hours, or blood with sCollagen 10 μg/ml, vs blood alone
# Experimental: as §1, §2
# Visualizing Fibrin Deposition: When analyzing the formation of fibrin, 10 μg/ml of fluorescently labeled fibrinogen (Alexa 488, Invitrogen) was also added to the blood. While fluorescent fibrinogen was barely detected as a diffused fluorescence, fibrin deposition on inflamed cells and sparse clots was easily distinguished since fibrin formed filamentous structures produce a signal intensity that is clearly observed above a background threshold.
# as §3, §4
# [3] = lupus and/or Crohn's disease; cited from earlier work
# [4] = tested on: thrombin anti-thrombin complex (TAT); experiment: Thrombin anti-thrombin (TAT) ELISA in plasma of chip effluent; type: cell-based, human; conditions: for levels of TAT: plasma from blood flowing out of the chip, vs untreated blood
# Experimental: Thrombin converts fibrinogen into fibrin during clot formation, and anti-thrombin plays a role in maintaining homeostasis by inhibiting the effect of thrombin. Formation of TAT in the microdevice confirms that local and intrinsic generation of thrombin, a potent platelet agonist, occurs in the model and that counter regulatory mechanisms for coagulation are retained. Thus, blood sampled from the Vessel-On-Chip was analyzed for thrombin anti-thrombin complex (TAT), an accepted clinical biomarker for procoagulation^48,49. TAT refers to a factor released upon activation of the coagulation cascade and one of the biomarkers associated with thrombotic events occurring in patients affected with deep vein thrombosis (DVT) or Systemic lupus erythematosus (SLE)^45,46. An enzyme-linked immunosorbent assay (ELISA) was used to quantify the thrombin anti-thrombin complex (TAT).
# Thrombin-Anti Thrombin (TAT) Measurement via ELISA: Thrombin Anti-Thrombin (TAT) levels were analyzed in plasma from blood flowing out of the chip device by removing a sample from the outflow port. Thus TAT levels were evaluated in sample effluents collected from the outflow port of the chip using the Human TAT ELISA Kit (Siemens Healthineers) according to the user manual.
# Blood sampled from the Vessel-On-Chip outflow port was analyzed for thrombin anti-thrombin complex (TAT), a factor released upon activation of the coagulation cascade and one of the biomarkers associated with thrombotic events occurring in patients affected with deep vein thrombosis (DVT) or SLE^45,46. TAT is an accepted clinical biomarker for procoagulation^48,49. An enzyme-linked immunosorbent assay (ELISA) was used to quantify the thrombin anti-thrombin complex (TAT).
# [5] = tested on: FcγRIIa; experiment: hu5C8-mediated thrombosis on-chip, FcγRIIa dependence (platelet coverage, fibrin deposition, TAT); type: cell-based, human; conditions: with sCD40L, IV.3 1 μg/ml block or IgG2σ variant in place of hu5C8
# Excerpt: Recent studies conducted on humanized mice expressing the human Fcγ receptors (FCGR2A) have shown that this receptor plays a role in thrombosis leading to the IC-mediated toxicity^12,16,21. […] In order to investigate if the IC5c8-induced thrombosis that we observed in our vessel-on-chip system also relies on an Fc-mediated mechanism, we used two different tool molecules: IgG2σ and IV.3 (FIG. 25A). The IgG2σ variant of hu5C8 has an engineered Fc region^48 that eliminates affinity for the FcγRIIa, while the monoclonal antibody IV.3 is a blocking antibody binding to FcγIIa. Briefly, equimolar concentrations of IgG2σ […] hu5c8 were incubated with […] sCD40L for 20 minutes to form ICIgG2σ or IC5c8, respectively.
# Some of the blood samples were treated with IV.3 (1 μg/ml) for 10 minutes to block the FcγRIIa, and then incubated for 20 more minutes with IC5c8. Finally, blood alone (control) or blood incubated with IC5c8, ICIgG2σ or IV.3 was perfused through the biomimetic microfluidic-on-chip for about 10 minutes. We tested 15 donors and all the tested conditions described above were tested in duplicates and analyzed as percentage of platelet coverage based on fluorescence microscopic imaging (FIG. 25B). Five of the donors were also tested for fibrin deposition (FIG. 25C). Finally, effluents plasma obtained from a total of 7 of the donors (including the 5 mentioned before) were used to assess TAT via ELISA (FIG. 25D). […]
# Blood from several human donors were aliquoted into groups for the following treatments: controls (PBS), sCD40L, combined hu5C8/sCD40L, combined hu5C8 (IgG2σ/sCD40L combined, and combined hu5C8/sCD40L/IV.3. Each condition was tested with a minimum of 3 donors to a maximum of 15 donors, and all conditions were tested in duplicates and analyzed for platelet coverage (FIG. 25B), fibrin deposition (FIG. 25C), or increased formation of TAT measured in the eluates (FIG. 25D). Platelet coverage and fibrin deposition following treatment were normalized and reported as fold-increase over untreated control values for each donor.
# [6] = tested on: re-calcified blood; experiment: On-chip anticoagulation of outflowing blood through the anticoagulant port; set-up: species or system human; conditions: introduced through the anticoagulant port; vs chips without anticoagulant port
# Excerpt: In order to functionally test the system, re-calcified blood was perfused through the inlet while anticoagulant, e.g. citrate buffer, was introduced online from the port situated next to the outflow port. Thus, blood obtained from the effluent of chips equipped with the anticoagulant port or without anticoagulant port were compared (FIG. 6). From a qualitative point of view the difference was striking.
# In order to functionally test the additive channel (i.e. microfluidic chamber(s)) attached to the outflow port of a Vessel-On-Chip, re-calcified blood was perfused through the inlet port while citrate was introduced online from a port situated next to the outflow port, flowing through the additive channel. Thus, blood obtained from the effluent of chips equipped with the anticoagulant port (additive channel) or without anticoagulant port were compared (FIG. 6). From a qualitative point of view the difference was striking.
# [7] = tested on: ICAM1; experiment: ICAM1 immunostaining of endothelium; type: cell-based, human; conditions: TNF-α stimulated vs control
# Experimental: ICAM1 is shown with examples identified by white arrows. One example of a DAPI stained nuclei is shown inside of a white circle.
# TNF-alpha Stimulation: In some experiment endothelial cells were stimulate with 50 ng/ml of TNF (Sigma) for 6 hours in order to induce vascular inflammation before blood perfusion.
# [8] = Eptifibatide 2 μg/ml, endothelium inflamed with TNF-α, n=4
molecule,measurement,setting,value
"hu5C8: humanized monoclonal IgG1 antibody against CD40L, alternatively named anti-CD154",platelet aggregate formation / platelet coverage,[1],no significant treatment-related effects
same,fibrin deposition on the endothelium,[2],no significant treatment-related effects
same,thromboembolism and cardiovascular events during clinical trials,[3],multiple incidents of thromboembolism and cardiovascular events
"sCollagen: soluble collagen (Soluble Calf Skin, Type I), a standard platelet activator",platelet coverage,[1],increased areas of platelet coverage
same,fibrin signal intensity,[2],increased
same,levels of TAT,[4],minimally increased; also recorded: elevated levels of TAT
N=C(N)NCCCC[C@@H]1NC(=O)CCSSC[C@@H](C(N)=O)NC(=O)[C@@H]2CCCN2C(=O)[C@H](Cc2c[nH]c3ccccc23)NC(=O)[C@H](CC(=O)O)NC(=O)CNC1=O [Eptifibatide] ([Mpa][hArg]GDWPC-NH2; disulfide 1-7),platelet aggregation,[1]; [8],significantly inhibited
same,inhibitory effect on platelet aggregation and fibrin clot formation,"[1]; Eptifibatide 2 μg/ml, following treatment with sCollagen, n=4",comparatively modest
same,platelet adhesion (image analysis),"[1]; Eptifibatide 2 μg/ml, samples treated with TNF-α, n=4",completely inhibited
same,"platelet coverage in stimulated, pro-thrombotic conditions","[1]; FIG. 18E-1, TNF-α or sCollagen with Eptifibatide, n=4 donors",suppressed
same,fibrin clot formation,[2]; [8],significantly inhibited
same,fibrin signal (image analysis),"[2]; Eptifibatide 2 μg/ml, samples treated with TNF-α",a significant amount of fibrin signal was still detectable
same,"fibrin deposition in stimulated, pro-thrombotic conditions","[2]; FIG. 18E-2, TNF-α or sCollagen with Eptifibatide, n=4 donors",suppressed
same,TAT increment associated with TNF-α-induced inflammation,[4]; Eptifibatide treatment,did not inhibit
same,TAT increment due to sCollagen treatment,[4]; Eptifibatide treatment,entirely suppressed
hu5C8 (IgG2σ): IgG2σ variant of hu5C8 with an engineered Fc region that eliminates affinity for FcγRIIa,"hu5C8-mediated thrombosis on-chip (platelet coverage, fibrin deposition, TAT)",[5],did not show signs of thrombosis in any of the endpoints
same,"hu5C8-mediated thrombosis on-chip (platelet coverage, fibrin deposition, TAT)",[5]; listed as IgG2σ,suppressed
same,"hu5C8-mediated thrombosis on-chip (platelet coverage, fibrin deposition, TAT)",[5]; listed as hu5C8-IgG2σ,not detected
O=C(O)CC(O)(CC(=O)O)C(=O)O [sodium citrate],state of blood collected from the effluent,[6],soluble (not clotted) blood
TNF-α,platelet coverage,[1],increased areas of platelet coverage
same,fibrin signal intensity,[2],increased
same,levels of TAT,[4],significantly increased; also recorded: elevated levels of TAT
same,expression of ICAM1 in the endothelium,[7],increased expression; also recorded: higher
B1,increase in platelet coverage in some donors,[1]; fold-increase over untreated control,about 2 fold
same,platelet aggregate formation / platelet coverage,[1],no significant treatment-related effects; also recorded: not statistically significant
same,fibrin deposition on the endothelium,[2],no significant treatment-related effects
